The values that follow come from patent publication US20140322252A1, “Peptides for Treating Alzheimers's Disease and Related Conditions” (priority 2013, published 2014).

The subject of series [1] is CCL2 (MCP-1) chemotaxis of human monocytes. The experiment in a line: CCL2-mediated human monocyte chemotaxis (FIG. 1). Particulars: FIG. 1, direct comparison among all RAPs. The series is classed as cell-based.
Text: Triplicate determinations were made and results are expressed as the mean plus or minus SEM. The experiment shown is a direct comparison among all RAPs. Statistical analysis was by unpaired t-test, with significance set at the p<0.01 (*) level for difference from CCL2 only chemotaxis.
The next series addresses T1, CCR8 (Homo sapiens, UniProt P51685).
T1 construct: required maturation with M-CSF for 48 hrs to up-regulate expression of CCR8; endogenous in cells; host or cells: human monocytes isolated by Ficoll-Percoll gradient, matured with M-CSF for 48 hours (M2-type macrophages)
Format: cell-based. Particulars: for inhibition of CCL1 (I-309) mediated chemotaxis / CCR8 function: M2 type monocyte derived macrophages, CCL1 1 nM.

In another series the test system is LPS-infused rats. The conditions noted are these: 0.01 mg/kg, s.c., 14 days, cited from earlier work.
In series [2] the test system is NBM lesioned aged Sprague-Dawley rats. Particulars: bilateral NBM lesions, 1 mg IP daily for 5 months; cited from earlier work.
Series [3] in a line: Pharmacokinetic study of RAP-103 in male Sprague Dawley rat, LC-MS/MS. The series is classed as in vivo. How it is done:
A pharmacokinetic study of all-D-TTNYT (SEQ ID NO:2) (RAP-103) following intravenous and oral administration was conducted at a target dose level of 1 mg/kg in the male Sprague Dawley rat. The concentration of RAP-103 in each plasma and brain sample was measured using a suitable LC-MS/MS assay. The assay used was a research grade assay (RGA-1) which was established by assessing the accuracy, precision and the linearity of the method. Plasma concentrations generated were used to evaluate the pharmacokinetic parameters of all-D-TTNYT (SEQ ID NO:2) (RAP-103).
The dose formulation was administered intravenously to some animals as a slow bolus over ca 30 s via the tail vein and to a different group of animals orally via gastric gavage at a target dose volume of 1 mL/kg, to achieve a target dose level of 1 mg/kg. The dose volume administered was calculated according to the bodyweight of the animal on the day of dosing. The weight of administered dose was recorded. […] Results of the study show oral boavailibity of the all-D-peptide was achieved, results are in Table 1

Another series deals with CCR2 (Homo sapiens, UniProt P41597). Particulars: published, Padi 2012; cited from earlier work.
In series [4] the test system is rats with partial ligation of the sciatic nerve. The conditions noted are these: cited from earlier work.
The subject of series [5] is cofilin-actin rods in hippocampal neurons.
Series [6] has as its system APPSwDI/NOS2−/− transgenic mouse. The conditions noted are these: 0.4 mg/kg p.o. once-a-day, 9 months of age, RAWM.
Experimental: We tested yet a further all-D-amino acid modified peptide for oral bioavailability and protection to memory losses in an animal AD model.
Both Transgenic (CVN) and wild-type (WT) mice were used: WT mice were treated orally (p.o.) with vehicle; while CVN mice treated p.o. with either vehicle or treated p.o. with RAP-310, 0.4 mg/kg. At the age of 4.5 to 5 months the mice were subjected to once-a-day oral vehicle or RAP-310. After 1 month of treatment, starting at the age of 6 months, the mice were subjected to radial arm water maze testing.

T1 sequence (P51685 whole entry): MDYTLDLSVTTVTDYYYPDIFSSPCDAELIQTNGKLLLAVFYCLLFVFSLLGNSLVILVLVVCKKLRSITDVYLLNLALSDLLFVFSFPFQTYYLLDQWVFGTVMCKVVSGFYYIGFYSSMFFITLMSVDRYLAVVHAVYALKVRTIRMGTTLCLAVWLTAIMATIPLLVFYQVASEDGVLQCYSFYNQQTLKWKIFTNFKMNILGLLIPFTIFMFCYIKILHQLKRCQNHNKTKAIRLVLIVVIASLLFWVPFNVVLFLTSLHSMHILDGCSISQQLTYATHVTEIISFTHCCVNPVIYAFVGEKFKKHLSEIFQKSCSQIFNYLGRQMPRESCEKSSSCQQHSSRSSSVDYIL
Chain of CCR2 (P41597 whole entry): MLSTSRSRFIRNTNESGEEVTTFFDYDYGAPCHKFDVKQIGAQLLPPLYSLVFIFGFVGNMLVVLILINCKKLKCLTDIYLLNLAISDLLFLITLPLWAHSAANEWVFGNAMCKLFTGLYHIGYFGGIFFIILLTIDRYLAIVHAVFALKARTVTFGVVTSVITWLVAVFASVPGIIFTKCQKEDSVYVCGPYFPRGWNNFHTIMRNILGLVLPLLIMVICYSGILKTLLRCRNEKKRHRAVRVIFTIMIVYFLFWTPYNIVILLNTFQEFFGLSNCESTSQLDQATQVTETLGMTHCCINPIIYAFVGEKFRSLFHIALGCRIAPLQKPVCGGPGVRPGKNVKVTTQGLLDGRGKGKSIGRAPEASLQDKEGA
Experimental for CCR8: Human monocytes isolated by Ficoll-Percoll gradient were cultured in complete growth medium (RPMI1640, supplemented with 10% FBS and 4 mM L-glutamine) in presence of M-CSF for 48 hours. Resting monocytes, as freshly isolated, were not responsive to CCL1, which required maturation with M-CSF for 48 hrs to up-regulate expression of CCR8, so-called “M2” type macrophages. […] The data represent the mean of triplicate determinations of a representative experiment.

For the compound D-ala1-STTTNYT-NH2 [DAPTA], the “potency to block CCL2 (MCP-1) chemotaxis” value in series [1] was “most potent”. The “potency to block CCL2 (MCP-1) chemotaxis” value in series [1] (listed as RAP-101) is reported as “greater potency”. For the same compound, the “inhibition of CCL1 (I-309) mediated chemotaxis / CCR8 function” value against CCR8 is reported as “Inhibit”. Also, the “number of activated microglia and astrocytes” value in the series with LPS-infused rats (vs vehicle) is given as “dramatically reduced”. In the series on LPS-infused rats, the “number of immunoreactive cells expressing NfKb” value is given as “reduced”. In series [2], the “lesion-induced decreases in cortical thickness” value was “prevented or attenuated” and the “loss of large neurons in layer V” value is listed as “attenuated”.
As for `C[C@H](O)[C@@H](N)C(=O)N[C@@H](C(=O)N[C@H](CC(N)=O)C(=O)N[C@H](Cc1ccc(O)cc1)C(=O)N[C@@H](C(=O)O)[C@H](C)O)[C@H](C)O` [RAP-103, All-D-TTNYT], in series [3] (intravenous, 1 mg/kg, nominal time 0.5 h, individual animals), the “concentration in male rat plasma” value was 0.561 µg/mL. Also, in [3] (rat, 1 mg/kg), the “time of peak plasma levels” value lay in the range of 10 to 15 min. For the same compound, the detection in plasma result in [3] (rat, 5 minutes (0.083 hrs) after dosing, continues at 1 hr) is listed as “detected”. Moreover, on CCR2, the “activity to block MCP-1 human monocyte chemotaxis” value is “block”. The already established hypersensitivity result in series [4] (0.2-1 mg/kg, days 8 to 12) is recorded as “reverses”. Moreover, in series [4] (oral 0.05-1 mg/kg for 7 days), the “development of thermal hyperalgesia” value is “inhibits” and the mechanical allodynia result is reported as “fully prevents”. Further, the “spinal microglial activation and monocyte infiltration” value in series [4] (peripheral nerve injury) is recorded as “reduce”.
Take `C[C@H](O)[C@@H](NC(=O)[C@@H](Cc1ccc(O)cc1)NC(=O)[C@@H](CC(N)=O)NC(=O)[C@H](NC(=O)[C@H](NC(=O)[C@H](NC(=O)[C@@H](CO)NC(=O)[C@@H](C)N)[C@H](C)O)[C@H](C)O)[C@H](C)O)C(=O)O` [RAP-310]: the “potency to block CCR8 compared with DAPTA” value at CCR8 (FIG. 3) is listed as “comparable potency”. For the same compound, on CCR8, the “inhibition of CCL1 (I-309) mediated chemotaxis / CCR8 function” value is reported as “Inhibit”. Moreover, in series [5], the EC50 was about 0.1 pM and the “block of TNFα caused cofilin-actin rod stress response” value is “comparably blocked”. In series [6], the “less errors in block 5 compared to CVN vehicle treated mice” value was determined as 50% and the “less errors in sum scores for Day 1 compared to CVN vehicle treated mice” value is given as 30%.

The EC50 is the concentration at which the effect is half-maximal. High values mean weaker potency, low ones greater potency.
